For one assay, the system named is resistin. In words: Resistin gene expression in MEF-derived adipocytes. The assay is classed as cell-based, mouse. The settings on record: 8 days of MEF adipocyte differentiation in adipogenic medium; compositions at f.c. 20, 100, 200 μg/mL; HA 80, DS 20 μg/mL. How it is done: MEFs obtained from embryos of 13 days gestational age were cultured in monolayer in growth medium consisting of […] (Invitrogen, Carlsbad, Calif., USA) basal medium supplemented with […] supplement (7.5%), foetal bovine serum (7.5%) and antibiotics, in 12-well culture plates of 1 mL capacity/well, following a previously described protocol (J. B. Hansen et al., Proc. Natl. Acad. Sci. USA 101, 4112-4117 (2004)). […] The mRNA levels of the genes related to adipocyte differentiation PPARgamma, C/EBPalpha and fatty acid synthase (FAS) were determined by real-time PCR from the total RNA extracted from the cells with Trizol reagent and reverse-transcribed with reverse transcriptase, and using the mRNA of beta-actin as an internal control. […] The statistical significance of differences with respect to treatment with the carrier was analyzed by means of Student's t-test. […] The mRNA levels of selected genes were determined by real-time PCR, as described in Example 1. […] Expression levels of the resistin gene were determined by real-time PCR, as described in Example 1.

For assay [1], the system named is mouse embryonic fibroblasts (MEFs). In words: Spontaneous adipogenesis of MEFs in growth medium: lipid accumulation under phase contrast microscopy. The assay is classed as cell-based. The settings on record: day 8 of culture in growth medium, HA 80 μg/mL, DS 20 μg/mL, HA8O+DS20 100 μg/mL. How it is done: MEFs obtained from embryos of 13 days gestational age were cultured in monolayer in growth medium consisting of […] (Invitrogen, Carlsbad, Calif., USA) basal medium supplemented with […] supplement (7.5%), foetal bovine serum (7.5%) and antibiotics, in 12-well culture plates of 1 mL capacity/well, following a previously described protocol (J. B. Hansen et al., Proc. Natl. Acad. Sci. USA 101, 4112-4117 (2004)). Two days after reaching confluence, which is considered day 0 of culture, the cells were exposed to: carrier (water); hyaluronic acid (HA) at a final concentration (f.c.) of 80 μg/mL; dermatan sulphate (DS) at an f.c. of 20 μg/mL; chondroitin sulphate (CS) at an f.c. of 20 μg/mL; or composition of the present invention HA8O+DS20 at an f.c. of 100 μg/mL, containing 80 μg of HA and 20 μg of DS per mL. […] The mRNA levels of the genes related to adipocyte differentiation PPARgamma, C/EBPalpha and fatty acid synthase (FAS) were determined by real-time PCR from the total RNA extracted from the cells with Trizol reagent and reverse-transcribed with reverse transcriptase, and using the mRNA of beta-actin as an internal control. […] The statistical significance of differences with respect to treatment with the carrier was analyzed by means of Student's t-test. […]

Take dermatan sulphate [DS20]: the expression of resistin entry with resistin is “not reproduced”. For the same substance, in assay [1], the “clusters of cells spontaneously differentiated into adipocytes filled with fat droplets” value was “presence of a number of clusters of cells spontaneously differentiated into adipocytes filled with fat droplets”.

Regarding hyaluronic acid [HA80], the expression of resistin entry in the assay on resistin was “not reproduced”. Moreover, the “clusters of cells spontaneously differentiated into adipocytes filled with fat droplets” value in assay [1] is reported as “presence of a number of clusters of cells spontaneously differentiated into adipocytes filled with fat droplets”.

Values taken from patent US20150182597A1, “COMPOSITIONS COMPRISING HYALURONIC ACID AND DERMATAN SULPHATE FOR THE TREATMENT OF BEING OVERWEIGHT AND OBESITY” (BIOIBERICA, S.A., priority 2012, published 2015).
